In patent publication US9999222B2, “Herbicidal combination comprising azines” (BASF SE, priority 2014, dated 2018):
“And” between values parts separate entries of the source, which are not always exact repeats. Equal entries are not always repeated. Where two headings read alike, the source gives them in different places.

How the values were obtained:
Assay in all cases: Greenhouse test, pre-emergence treatment
[1] = system: GALAP; type: in vivo, Galium aparine; settings: Galium aparine, 480 h, pre-emergence
Procedure, shortened: (§1)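 Seeds were sown in loamy sand with about 3.0% humus, and compounds in water were sprayed immediately after sowing, alone or as combinations formulated as 10% emulsion concentrates. Plants grew under hoods until rooted, at 10-25 °C or 20-35 °C by species, for 2 to 4 weeks. Damage was scored 0-100 (100 = no emergence or complete destruction), and Colby expected values were E=X+Y−(X·Y/100).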

[2] = system: LOLMU; type: in vivo, Lolium multiflorum; settings: Lolium multiflorum, pre-emergence, 480 h; for inhibition at 12.5 g/ha: use rate 12.5 g ai/ha; for inhibition at 25 g/ha: use rate 25 g ai/ha
Procedure, shortened: as §1

[3] = system: PHACA; type: in vivo, Phalaris canariensis; settings: Phalaris canariensis, pre-emergence, 480 h; for inhibition at 12.5 g/ha: use rate 12.5 g ai/ha; for inhibition at 25 g/ha: use rate 25 g ai/ha
Procedure, shortened: as §1

[4] = system: ECHCG; type: in vivo, Echinocloa crus-galli; settings: Echinochloa crus-galli, 480 h, read-out: observed % activity 20 DAT; for inhibition at 12.5 g/ha: use rate 12.5 g ai/ha
Procedure, shortened: as §1

[5] = system: COMBE; type: in vivo, Commelina benghalensis; settings: Commelina benghalensis, 480 h; pre-emergence, 12 g ai/ha; read-out: observed % activity 20 DAT
Procedure, shortened: as §1

[6] = system: EPHHL; type: in vivo, Euphorbia heterophylla; settings: Euphorbia heterophylla, pre-emergence, 480 h, pre-emergence, read-out: observed % activity 20 DAT
Procedure, shortened: as §1

[7] = system: AVEFA; type: in vivo, Avena fatua; settings: pre-emergence
Procedure, shortened: as §1

[8] = system: GERPU; type: in vivo, Geranium pusillum; settings: Geranium pusillum, pre-emergence, 480 h, pre-emergence, read-out: observed % activity 20 DAT
Procedure, shortened: as §1

[9] = system: KCHSC; type: in vivo, Kochia scoparia; settings: Bassia scoparia, 480 h, pre-emergence
Procedure, shortened: as §1

[10] = system: SETFA; type: in vivo, Setaria faberi; settings: Setaria faberi, 480 h, SETFA, 20 DAT, read-out: observed % activity 20 DAT
Procedure, shortened: as §1

[11] = system: SORHA; type: in vivo, Sorghum halepense; settings: Sorghum halepense, pre-emergence, 480 h, 20 DAT, read-out: observed % activity
[12] = system: ALOMY; type: in vivo, Alopecurus myosuroides; settings: Alopecurus myosuroides, pre-emergence, 480 h; for inhibition at 12.5 g/ha: use rate 12.5 g ai/ha; for inhibition at 25 g/ha: use rate 25 g ai/ha
Procedure, shortened: as §1

[13] = system: SETVI; type: in vivo, Setaria viridis; settings: 8 g ai/ha
Source text: The culture containers used were plastic flowerpots containing loamy sand with approximately 3.0% of humus as the substrate. The seeds of the test plants were sown separately for each species.
For the pre-emergence treatment, the active ingredients, which had been suspended or emulsified in water, were applied directly after sowing by means of finely distributing nozzles. The containers were irrigated gently to promote germination and growth and subsequently covered with transparent plastic hoods until the plants had rooted. This cover caused uniform germination of the test plants, unless this had been impaired by the active ingredients.
Depending on the species, the plants were kept at 10-25° C. or 20-35° C., respectively.
The test period extended over 2 to 4 weeks. During this time, the plants were tended, and their response to the individual treatments was evaluated.
Evaluation was carried out using a scale from 0 to 100. 100 means no emergence of the plants, or complete destruction of at least the aerial moieties, and 0 means no damage, or normal course of growth. A moderate herbicidal activity is given at values of at least 60, a good herbicidal activity is given at values of at least 70, and a very good herbicidal activity is given at values of at least 85.
The respective stated components a and b, and if appropriate, c were formulated as a 10% by weight strength emulsion concentrate and, with addition of the amount of solvent system, introduced into the spray liquor used for applying the active compound.
In the examples, the solvent used was water.
In the examples below, using the method of S. R. Colby (1967) “Calculating synergistic and antagonistic responses of herbicide combinations”, Weeds 15, p. 22ff., the value E, which is expected if the activity of the individual active compounds is only additive, was calculated. E=X+Y−(X·Y/100) where • X=percent activity using active compound a at an application rate A; • Y=percent activity using active compound b at an application rate B; • E=expected activity (in %) by a+b at application rates A+B.
If the value found experimentally is higher than the value E calculated according to Colby, a synergistic effect is present.

[14] = system: BRADC; type: in vivo, Brachiaria decumbens; settings: pre-emergence
Procedure, shortened: as §1

[15] = system: POLCO; type: in vivo, Polygonum convolvulus; settings: Fallopia convolvulus, 480 h, pre-emergence; for inhibition at 12.5 g/ha: use rate 12.5 g ai/ha
Procedure, shortened: as §1

[16] = 12 g ai/ha, read-out: observed % activity 20 DAT
[17] = 24 g ai/ha, read-out: observed % activity 20 DAT
[18] = 12 g ai/ha, 20 DAT, read-out: observed % activity
[19] = 24 g ai/ha, 20 DAT, read-out: observed % activity
[20] = 6 g ai/ha, 20 DAT, read-out: observed % activity
[21] = 6 g ai/ha, read-out: observed % activity 20 DAT
[22] = 8 g ai/ha, read-out: observed % activity 20 DAT
[23] = LOLMU, 20 DAT, read-out: observed % activity 20 DAT
[24] = read-out: observed % activity 20 DAT
[25] = PHACA, 20 DAT, read-out: observed % activity 20 DAT
[26] = ALOMY, 20 DAT, read-out: observed % activity 20 DAT

SMILES: Cn1nc(C(F)(F)F)c(CS(=O)(=O)C2=NOC(C)(C)C2)c1OC(F)F [Pyroxasulfone, pyroxasulfone]
- pest or weed control at 12 g/ha [1, 16]: 35%
- pest or weed control at 24 g/ha [1, 17]: 50%
- inhibition at 12 g/ha [1, 18]: 75%
- inhibition at 24 g/ha [1, 19]: 75%
- inhibition at 6 g/ha [2, 20]: 35%
- inhibition at 24 g/ha [2, 19]: 98%
- pest or weed control at 6 g/ha [2, 21]: 70%
- pest or weed control at 8 g/ha [2, 22]: 50%
- pest or weed control at 12 g/ha [2, 16]: 80%
- pest or weed control at 24 g/ha [2, 17]: 95%
- inhibition at 12.5 g/ha [2, 23]: 30%
- inhibition at 25 g/ha [2, 23]: 40%
- inhibition at 12.5 g/ha [2, 24]: 30%
- inhibition at 25 g/ha [2, 24]: 40%
- inhibition at 6 g/ha [3, 20]: 80%
- inhibition at 24 g/ha [3, 19]: 95%
- pest or weed control at 6 g/ha [3, 21]: 70%
- pest or weed control at 8 g/ha [3, 22]: 70%
- pest or weed control at 12 g/ha [3, 16]: 75%
- pest or weed control at 16 g/ha ([3]; 16 g ai/ha, read-out: observed % activity 20 DAT): 75%
- pest or weed control at 24 g/ha [3, 17]: 95%
- inhibition at 12.5 g/ha [3, 25]: 40%
- inhibition at 25 g/ha [3, 25]: 55%
- inhibition at 12.5 g/ha [3, 24]: 40%
- inhibition at 25 g/ha [3, 24]: 55%
- pest or weed control at 8 g/ha ([4]; 8 g ai/ha): 70%
- inhibition at 12.5 g/ha ([4]; ECHCG, 20 DAT): 50%
- inhibition at 25 g/ha ([4]; ECHCG, use rate 25 g ai/ha, 20 DAT): 90%
- inhibition at 12.5 g/ha [4]: 50%
- pest or weed control at 12 g/ha [5]: 90%
- pest or weed control at 12 g/ha ([6]; 12 g ai/ha): 40%
- pest or weed control at 24 g/ha ([6]; 24 g ai/ha): 70%
- inhibition at 6 g/ha ([7]; Avena fatua, 480 h, 6 g ai/ha, 20 DAT, read-out: observed % activity): 0%
- inhibition at 24 g/ha ([7]; Avena fatua, 480 h, 24 g ai/ha, 20 DAT, read-out: observed % activity): 60%
- observed % activity 20 DAT ([7]; 8 g ai/ha): 40%
- observed % activity 20 DAT ([7]; 12 g ai/ha): 20% and 30%
- observed % activity 20 DAT ([7]; 16 g ai/ha): 60% and 35%
- observed % activity 20 DAT ([7]; 24 g ai/ha): 70%
- pest or weed control at 12 g/ha ([8]; 12 g ai/ha): 10%
- pest or weed control at 24 g/ha ([8]; 24 g ai/ha): 20%
- pest or weed control at 12 g/ha [9, 16]: 50%
- pest or weed control at 24 g/ha [9, 17]: 80%
- inhibition at 6 g/ha [9, 20]: 0%
- inhibition at 12 g/ha [9, 18]: 85%
- inhibition at 25 g/ha ([9]; use rate 25 g ai/ha, read-out: observed % activity 20 DAT): 0%
- inhibition at 12.5 g/ha ([10]; use rate 12.5 g ai/ha): 80%
- inhibition at 25 g/ha ([10]; use rate 25 g ai/ha): 95%
- inhibition at 6 g/ha ([11]; 6 g ai/ha): 75%
- inhibition at 24 g/ha ([11]; 24 g ai/ha): 98%
- inhibition at 12 g/ha [12, 18]: 95%
- inhibition at 24 g/ha [12, 19]: 98%
- pest or weed control at 6 g/ha [12, 21]: 80%
- pest or weed control at 12 g/ha [12, 16]: 95%
- pest or weed control at 24 g/ha [12, 17]: 98%
- inhibition at 12.5 g/ha [12, 26]: 20%
- inhibition at 25 g/ha [12, 26]: 20%
- inhibition at 12.5 g/ha [12, 24]: 20%
- inhibition at 25 g/ha [12, 24]: 20%
- observed % activity 20 DAT [13]: 85%
- inhibition at 6 g/ha ([14]; Urochloa decumbens, 480 h, 6 g ai/ha, 20 DAT, read-out: observed % activity): 53%
- pest or weed control at 6 g/ha ([14]; Urochloa decumbens, 480 h, 6 g ai/ha, read-out: observed % activity 20 DAT): 35%
- pest or weed control at 12 g/ha ([14]; Urochloa decumbens, 480 h, 12 g ai/ha, read-out: observed % activity 20 DAT): 30%
- pest or weed control at 16 g/ha ([14]; Urochloa decumbens, 480 h, 16 g ai/ha, read-out: observed % activity 20 DAT): 55%
- pest or weed control at 24 g/ha ([14]; Urochloa decumbens, 480 h, 24 g ai/ha, read-out: observed % activity 20 DAT): 95%
- observed % activity 20 DAT ([14]; 12 g ai/ha): 30%
- pest or weed control at 12 g/ha [15, 16]: 20%
- pest or weed control at 24 g/ha [15, 17]: 20%
- inhibition at 12 g/ha [15, 18]: 0%
- inhibition at 12.5 g/ha ([15]; POLCO, 20 DAT, read-out: observed % activity 20 DAT): 0%
- inhibition at 12.5 g/ha [15, 24]: 0%
